Experiments:
[1] = test system: IL-22; test: TH17 cytokine inhibition measured by ELISA (IL-22); format: cell-based; settings: 120 h; human TH17 cells, 5 days differentiation, ELISA of supernatants, 0.1% DMSO
Experimental: (§1) Peripheral blood mononuclear cells (PBMCs) were sourced from freshly prepared leukocyte enriched plasma (buffy coat) from healthy volunteers from which PBMCs were isolated by density gradient centrifugation using Ficoll-Paque™ PLUS (GE Healthcare). Naïve CD4+ T cells were isolated using the Naïve CD4+ T cell Isolation Kit II (Miltenyi Biotec) as per manufacturer's instructions. CD4+ T cells were plated at 5×10^4 cells/well in 96 well plates pre-coated with immobilized human (h)-αCD3 antibody (eBioscience) then differentiated to TH17 cells using h-αCD28, h-αIFN-γ, h-αIL-4, h-IL-6, h-IL-23, h-IL-1β, h-TGF-β1 (eBioscience) and maintained in a cell culture incubator at 37° C. with 5% CO2 in TexMACS Medium (Miltenyi Biotec) supplemented with 1% Penicillin/Streptomycin (Lonza) over 5 days.
(§2) Human CD4+ T cells were differentiated to TH17 cells as described in the presence or absence of various concentrations of compounds in a final concentration of 0.1% DMSO in TexMACS medium. Supernatants were collected and stored at −20° C. until they were to be assayed for IL-17A, IL-17F, IL-17AF, IL-21 and/or IL-22 levels as determined by Ready-Set-Go ELISA kits (eBioscience) as per manufacturer's instructions. Endpoint absorbance was read at 450 nm and 570 nm according to manufacturer's instructions (eBioscience) using a microplate reader (Perkin Elmer). The percentage of cytokine inhibition was calculated with reference to DMSO treated cells and the IC50s were determined by GraphPad Prism software and presented in the table below.

[2] = target: T1, RORα LBD (Homo sapiens, UniProt P35398); test: TR-FRET NCoR1-D2 co-repressor recruitment to RORα LBD; format: biochemical
T1 construct: purified GST-tagged (i) RORγ LBD or (ii) RORα LBD; purchased Life Technologies
T1 sequence (P35398 272-510 limits assumed): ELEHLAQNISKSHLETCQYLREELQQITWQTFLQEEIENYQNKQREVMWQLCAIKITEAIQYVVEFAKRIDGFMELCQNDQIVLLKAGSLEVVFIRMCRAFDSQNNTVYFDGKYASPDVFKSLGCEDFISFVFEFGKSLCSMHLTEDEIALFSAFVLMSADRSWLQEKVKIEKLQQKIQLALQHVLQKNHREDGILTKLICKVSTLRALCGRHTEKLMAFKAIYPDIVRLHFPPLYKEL
Text: (§3) The Time-Resolved Fluorescence Resonance Energy Transfer (TR-FRET) assay kit (Life Technologies) was used to measure compound efficacy to disrupt or enhance ligand-mediated interaction of the co-activator and co-repressor peptides with the purified GST-tagged (i) RORγ LBD or (ii) RORα LBD. The RORγ LBD and RORα LBD each have a basal level of interaction with the co-activator D22 or co-repressor NCoR1-D2 in the absence of ligand, thus it is possible to identify compounds that inhibit or induce RORγ and/or RORα co-activator/co-repressor interactions, thus determining RORα, RORγ, or RORα/RORγ compound selectivity. The assay was performed as per manufacturer's instructions and TR-FRET was assessed 2 and 20 hours post-assay initiation. Compounds were identified to (i) have no impact on either co-activator displacement or […] from the assessed LBD (ii) promote co-activator displacement from the assessed LBD (iii) promote co-repressor recruitment to the assessed LBD or (iv) concurrently promote co-activator displacement from the assessed LBD and co-repressor recruitment to the assessed LBD.

[3] = test system: IL-22; test: Real-Time qRT-PCR gene expression in TH17 cells (IL-22); format: cell-based, human; set-up: key: A: No change in gene expression observed relative to DMSO treated Th17 cells; B: Decreased gene expression observed relative to DMSO treated Th17 cells; C: Increased gene expression observed relative to DMSO treated Th17 cells; settings: normalized to six reference genes
Experimental: as §1
(§4) RNA was isolated from TH17 cells and cDNA was synthesized using the Verso cDNA kit (Thermo Scientific) as per manufacturer's instructions. IL-17A, IL-17F, IL-21, IL-22, G-CSF, IL-23R and FOXP3 gene expression were determined for compound treated and untreated TH17 cell samples using Solaris qPCR Gene expression assays (Thermo Scientific) with an iCycler iQ Real-Time PCR Detection System (Bio-Rad). Individual gene expression was normalized to a panel of six reference genes (ACTB, TBP, HPRT1, PGK1, TFRC and PPIA) (Thermo Scientific) and analyzed by REST 2009 (Qiagen) in accordance to MIQE guidelines (Bustin et al. (2009) Clin. Chem, 55:611-622). The effects of compounds on TH17 cytokine gene expression are presented as fold change in mRNA levels of compound treated TH17 cells relative to DMSO treated cells in the table below.

[4] = target: T2, RORγ LBD (Homo sapiens, UniProt P51449); test: RORγ LBD binding (Human RORγ Assay System, INDIGO Biosciences); set-up: purchased INDIGO Biosciences Inc; settings: 0.5% DMSO
T2 sequence (P51449 269-508 limits assumed): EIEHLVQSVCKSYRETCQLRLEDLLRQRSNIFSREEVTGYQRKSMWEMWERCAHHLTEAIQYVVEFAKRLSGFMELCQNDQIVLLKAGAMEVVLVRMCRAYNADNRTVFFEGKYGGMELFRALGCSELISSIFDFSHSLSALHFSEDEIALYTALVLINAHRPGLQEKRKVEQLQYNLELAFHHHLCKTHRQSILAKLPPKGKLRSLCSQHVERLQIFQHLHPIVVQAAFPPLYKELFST
Experimental: Compound binding to the human RORγ LBD was assessed using the Human RORγ Assay System (INDIGO Biosciences Inc.) as per manufacturer's instructions.

[5] = test system: IL-17F; test: Real-Time qRT-PCR gene expression in TH17 cells (IL-17F); format: cell-based, human; set-up: key: A: No change in gene expression observed relative to DMSO treated Th17 cells; B: Decreased gene expression observed relative to DMSO treated Th17 cells; C: Increased gene expression observed relative to DMSO treated Th17 cells; settings: normalized to six reference genes
Experimental: as §1, §4

[6] = target: T1, RORα LBD; test: TR-FRET D22 co-activator displacement from RORα LBD; format: biochemical
Text: as §3

[7] = test system: IL-17F; test: TH17 cytokine inhibition measured by ELISA (IL-17F); format: cell-based; settings: 120 h; human TH17 cells, 5 days differentiation, ELISA of supernatants, 0.1% DMSO
Experimental: as §1, §2

[8] = test system: IL-17A; test: Real-Time qRT-PCR gene expression in TH17 cells (IL-17A); format: cell-based, human; set-up: key: A: No change in gene expression observed relative to DMSO treated Th17 cells; B: Decreased gene expression observed relative to DMSO treated Th17 cells; C: Increased gene expression observed relative to DMSO treated Th17 cells; settings: normalized to six reference genes
Experimental: as §1, §4

[9] = TR-FRET assessed 2 hr post-assay initiation, read-out: RORα EC50 NCoR1-D2 co-repressor recruitment, 2 hr
[10] = TR-FRET assessed 20 hr post-assay initiation, read-out: RORα EC50 NCoR1-D2 co-repressor recruitment, 20 hr
[11] = TR-FRET assessed 2 hr post-assay initiation, read-out: RORα EC50 D22 co-activator displacement, 2 hr
[12] = TR-FRET assessed 20 hr post-assay initiation, read-out: RORα EC50 D22 co-activator displacement, 20 hr

Row | Structure (SMILES) | IC50 [1] | EC50 [2, 9] | EC50 [2, 10] | IC50 [4] | EC50 [6, 11] | EC50 [6, 12] | IC50 [7] | Fold change in mRNA levels of compound treated TH17 cells relative to DMSO treated cells, IL-22 [3] | Fold change in mRNA levels of compound treated TH17 cells relative to DMSO treated cells, IL-17F [5] | Fold change in mRNA levels of compound treated TH17 cells relative to DMSO treated cells, IL-17A [8]
1 | Cc1n[nH]c(-c2ccc3c(c2)CCCN3Cc2ccc(C(O)(C(F)(F)F)C(F)(F)F)cc2)n1 [Example 3, 1,1,1,3,3,3-hexafluoro-2-(4-((6-(3-methyl-1H-1,2,4-triazol-5-yl)-3,4-dihydroquinolin-1(2H)-yl)methyl)phenyl)propan-2-ol] | < 10 µM | > 30 µM | < 30 µM | > 10 µM | > 30 µM | > 30 µM | < 10 µM | B | B | B
2 | Cc1cc(-c2ccc3c(c2)CCC(=O)N3Cc2ccc(C(O)(C(F)(F)F)C(F)(F)F)cc2)[nH]n1 [Example 4, 1-(4-(1,1,1,3,3,3-hexafluoro-2-hydroxypropan-2-yl)benzyl)-6-(3-methyl-1H-pyrazol-5-yl)-3,4-dihydroquinolin-2(1H)-one] | < 10 µM | > 30 µM | < 30 µM | < 10 µM | > 30 µM | > 30 µM | < 10 µM | B | B | B
3 | O=C1CCc2cc(-c3cn[nH]c3)ccc2N1Cc1ccc(C(O)(C(F)(F)F)C(F)(F)F)cc1 [Example 5, 1-(4-(1,1,1,3,3,3-hexafluoro-2-hydroxypropan-2-yl)benzyl)-6-(1H-pyrazol-4-yl)-3,4-dihydroquinolin-2(1H)-one] | < 10 µM | < 30 µM | > 30 µM | > 10 µM | > 30 µM | > 30 µM | < 10 µM | A | A | A
4 | Cc1n[nH]c(-c2ccc3c(c2)CCC(=O)N3Cc2ccc(C(O)(C(F)(F)F)C(F)(F)F)cc2)n1 [Example 6, 1-(4-(1,1,1,3,3,3-hexafluoro-2-hydroxypropan-2-yl)benzyl)-6-(3-methyl-1H-1,2,4-triazol-5-yl)-3,4-dihydroquinolin-2(1H)-one] | < 10 µM | > 30 µM | > 30 µM | > 10 µM | < 30 µM | < 30 µM | > 10 µM | B | B | B

The next lines start with results.

Row | IC50 [1] | EC50 [2, 9] | EC50 [2, 10] | IC50 [4] | EC50 [6, 11] | EC50 [6, 12] | IC50 [7] | Structure (SMILES) | Fold change in mRNA levels of compound treated TH17 cells relative to DMSO treated cells, IL-22 [3] | Fold change in mRNA levels of compound treated TH17 cells relative to DMSO treated cells, IL-17F [5] | Fold change in mRNA levels of compound treated TH17 cells relative to DMSO treated cells, IL-17A [8]
5 | < 10 µM | < 30 µM | < 30 µM | > 10 µM | > 30 µM | < 30 µM | < 10 µM | Cc1cc(-c2ccc3c(c2)CCCN3Cc2ccc(C(O)(C(F)(F)F)C(F)(F)F)cc2)[nH]n1 [Example 1, 1,1,1,3,3,3-hexafluoro-2-(4-((6-(3-methyl-1H-pyrazol-5-yl)-3,4-dihydroquinolin-1(2H)-yl)methyl)phenyl)propan-2-ol] | B | B | A
6 | < 10 µM | < 30 µM | < 30 µM | > 10 µM | < 30 µM | < 30 µM | < 10 µM | OC(c1ccc(CN2CCCc3cc(-c4cn[nH]c4)ccc32)cc1)(C(F)(F)F)C(F)(F)F [Example 2, 2-(4-((6-(1H-pyrazol-4-yl)-3,4-dihydroquinolin-1(2H)-yl)methyl)phenyl)-1,1,1,3,3,3-hexafluoropropan-2-ol] | B | B | B

Source: US9447069B2, “ROR modulators and their uses” (INNOV17 LLC, priority 2012, dated 2016)
